Laboratory results taken from patent publication US8071768B2, “Alkylquinoline and alkylquinazoline kinase modulators” (Janssen Pharmaceutica, N.V., priority 2005, dated 2011).

Experiments:
[1] = biological target: T1, FLT ligand-induced wild-type FLT3 phosphorylation (Homo sapiens, UniProt P36888); experiment: Cell-Based FLT3 Receptor Elisa (Baf3 FLT3 cells); settings: uncertainty ±20%
T1 construct: host or cells: Baf3 (murine B cell lymphoma line)
T1 sequence (P36888 27-993): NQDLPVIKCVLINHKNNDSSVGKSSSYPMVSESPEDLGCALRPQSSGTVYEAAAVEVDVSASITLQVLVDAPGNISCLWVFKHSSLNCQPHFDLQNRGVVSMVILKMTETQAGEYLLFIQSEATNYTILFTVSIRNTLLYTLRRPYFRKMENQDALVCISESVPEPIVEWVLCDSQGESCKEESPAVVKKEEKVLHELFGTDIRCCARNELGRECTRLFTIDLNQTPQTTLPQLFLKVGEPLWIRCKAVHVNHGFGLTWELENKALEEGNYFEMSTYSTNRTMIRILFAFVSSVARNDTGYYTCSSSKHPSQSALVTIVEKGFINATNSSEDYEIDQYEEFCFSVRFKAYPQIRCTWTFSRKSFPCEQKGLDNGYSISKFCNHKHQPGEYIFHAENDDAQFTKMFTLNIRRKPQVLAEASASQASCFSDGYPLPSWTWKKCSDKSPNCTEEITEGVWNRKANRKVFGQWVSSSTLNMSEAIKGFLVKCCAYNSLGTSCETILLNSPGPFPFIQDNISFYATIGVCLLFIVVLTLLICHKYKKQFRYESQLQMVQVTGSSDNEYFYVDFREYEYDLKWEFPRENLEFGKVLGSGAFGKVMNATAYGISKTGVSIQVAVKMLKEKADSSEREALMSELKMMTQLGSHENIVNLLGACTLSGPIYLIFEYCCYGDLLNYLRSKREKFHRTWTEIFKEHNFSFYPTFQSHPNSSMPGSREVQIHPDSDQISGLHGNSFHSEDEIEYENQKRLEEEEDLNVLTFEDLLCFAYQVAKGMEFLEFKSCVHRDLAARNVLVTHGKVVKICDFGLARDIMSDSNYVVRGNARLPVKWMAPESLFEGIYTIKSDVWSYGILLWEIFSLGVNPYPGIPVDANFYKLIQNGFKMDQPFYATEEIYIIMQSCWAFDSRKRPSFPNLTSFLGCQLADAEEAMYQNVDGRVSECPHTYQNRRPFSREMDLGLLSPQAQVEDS
Description: Cell-Based FLT3 Receptor Elisa
Specific cellular inhibition of FLT ligand-induced wild-type FLT3 phosphorylation was measured in the following manner: Baf3 FLT3 cells overexpressing the FLT3 receptor were obtained from Dr. Michael Heinrich (Oregon Health and Sciences University). The Baf3 FLT3 cell lines were created by stable transfection of parental Baf3 cells (a murine B cell lymphoma line dependent on the cytokine IL-3 for growth) with wild-type FLT3. Cells were selected for their ability to grow in the absence of IL-3 and in the presence of FLT3 ligand.
Baf3 cells were maintained in RPMI 1640 with 10% FBS, penn/strep and 10 ng/ml FLT ligand at 37° C., 5% CO2. To measure direct inhibition of the wild-type FLT3 receptor activity and phosphorylation a sandwich ELISA method was developed similar to those developed for other RTKs (3,4). 200 μL of Baf3FLT3 cells (1×10^6/mL) were plated in 96 well dishes in RPMI 1640 with 0.5% serum and 0.01 ng/mL IL-3 for 16 hours prior to 1 hour compound or DMSO vehicle incubation. Cells were treated with 100 ng/mL Flt ligand (R&D Systems Cat# 308-FK) for 10 min. at 37° C. Cells were pelleted, washed and lysed in 100 ul lysis buffer (50 mM Hepes, 150 mM NaCl, 10% Glycerol, 1% Triton-X-100, 10 mM NaF, 1 mM EDTA, 1.5 mM MgCl2, 10 mM NaPyrophosphate) supplemented with phosphatase (Sigma Cat# P2850) and protease inhibitors (Sigma Cat #P8340). […]

TrkB = biological target: T2, TrkB (Homo sapiens, UniProt Q16620); experiment: Trk B Fluorescence Polarization Kinase Assay; assay type: biochemical; settings: uncertainty ±10%
T2 construct: purchased Upstate 14-507M
T2 sequence (Q16620 32-822): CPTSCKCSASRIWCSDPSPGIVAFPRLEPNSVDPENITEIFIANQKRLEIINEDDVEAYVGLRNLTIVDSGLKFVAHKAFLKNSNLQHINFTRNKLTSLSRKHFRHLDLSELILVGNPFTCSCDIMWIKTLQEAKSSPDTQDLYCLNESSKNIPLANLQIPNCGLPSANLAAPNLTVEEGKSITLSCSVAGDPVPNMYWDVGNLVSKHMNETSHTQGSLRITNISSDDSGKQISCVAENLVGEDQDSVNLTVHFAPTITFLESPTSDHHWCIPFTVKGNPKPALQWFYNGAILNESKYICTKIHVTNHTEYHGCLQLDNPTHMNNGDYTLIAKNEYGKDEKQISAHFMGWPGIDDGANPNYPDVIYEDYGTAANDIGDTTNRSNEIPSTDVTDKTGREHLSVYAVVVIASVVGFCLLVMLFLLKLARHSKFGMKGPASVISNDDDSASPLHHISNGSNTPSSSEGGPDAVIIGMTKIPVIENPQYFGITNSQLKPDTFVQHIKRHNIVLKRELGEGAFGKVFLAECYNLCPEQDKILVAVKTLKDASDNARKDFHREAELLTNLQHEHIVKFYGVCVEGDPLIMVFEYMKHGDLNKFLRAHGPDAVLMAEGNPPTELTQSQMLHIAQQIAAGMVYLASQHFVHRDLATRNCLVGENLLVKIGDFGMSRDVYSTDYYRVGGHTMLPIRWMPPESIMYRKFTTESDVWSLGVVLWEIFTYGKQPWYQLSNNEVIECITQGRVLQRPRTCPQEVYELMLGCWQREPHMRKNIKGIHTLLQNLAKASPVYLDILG
Procedure, shortened: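 The TrkB kinase reaction (50 nM enzyme, 20 ug/mL poly Glu4Tyr, 150 uM ATP, 5 mM MgCl2, 1% DMSO) ran 30 minutes at room temperature and was stopped with EDTA. Phosphorylation was detected by fluorescence-polarization displacement of a fluorescein phosphopeptide from an anti-phosphotyrosine antibody. IC50 came from a variable-slope sigmoidal fit of triplicates.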

FLT3 = FLT3 phosphorylation in MV4-11 tumors from treated mice (immunoblot); assay type: in vivo, nude mice; settings: single dose 100 mg/kg po, tumors harvested 2 hours later
Description: To establish further that compounds of the present invention reached the expected target in tumor tissue, the level of FLT3 phosphorylation in tumor tissue obtained from vehicle- and compound-treated mice was measured. Results for Compound 73 and Compound 74 are shown in FIG. 3 and FIG. 4, respectively. For this pharmacodynamic study, a sub-set of 10 mice from the vehicle-treated control group were randomized into two groups of 5 mice each and then treated with another dose of vehicle or compound (100 mg/kg, po). Tumors were harvested 2 hours later and snap frozen for assessment of FLT3 phosphorylation by immunobloting.
Harvested tumors were processed for immunoblot analysis of FLT3 phosphorylation in the following manner: 100 mg of tumor tissue was dounce homogenized in lysis buffer (50 mM Hepes, 150 mM NaCl, 10% Glycerol, 1% Triton-X-100, 10 mM NaF, 1 mM EDTA, 1.5 mM MgCl2, 10 mM NaPyrophosphate) supplemented with phosphatase (Sigma Cat#P2850) and protease inhibitors (Sigma Cat #P8340). Insoluble debris was removed by centrifugation at 1000×g for 5 minutes at 4° C. Cleared lysates ([…] of total potein at 10 mg/ml in lysis buffer) were incubated with 10 μg of agarose conjugated anti-FLT3 antibody, clone C-20 (Santa Cruz cat # sc-479ac), for 2 hours at 4° C. with gentle agitation. […]

MV4-11 tumor xenografts = experiment: nude mouse MV4-11 human tumor xenograft regression model; assay type: in vivo, nude mice; settings: for decrease of mean tumor volume compared to vehicle-treated group: Day 11; for reduction of final tumor weight compared to vehicle-treated group: eleven days oral dosing
Description: Female athymic nude mice (CD-1, nu/nu, 9-10 weeks old) were obtained from Charles River Laboratories (Wilmington, Mass.) and were maintained according to NIH standards. All mice were group housed (5 mice/cage) under clean-room conditions in sterile micro-isolator cages on a 12-hour light/dark cycle in a room maintained at 21-22° C. and 40-50% humidity. Mice were fed irradiated standard rodent diet and water ad libitum. All animals were housed in a Laboratory Animal Medicine facility that is fully accredited by the American Association for Assessment and Accreditation of Laboratory Animal Care (AAALAC). All procedures involving animals were conducted in compliance with the NIH Guide for the Care and Use of Laboratory Animals and all protocols were approved by an Internal Animal Care and Use Committee (IACUC).
The human leukemic MV4-11 cell line was obtained from the American Type Culture Collection (ATCC Number: CRL-9591) and propagated in RPMI medium containing 10% FBS (fetal bovine serum) and 5 ng/mL GM-CSF (R&D Systems). MV4-11 cells are derived from a patient with childhood acute myelomonocytic leukemia with an 11q23 translocation resulting in a MLL gene rearrangement and containing an FLT3-ITD mutation (AML subtype M4)(1,2). MV4-11 cells express constitutively active phosphorylated FLT3 receptor as a result of a naturally occurring FLT3/ITD mutation. Strong anti-tumor activity against MV4-11 tumor growth in the nude mouse tumor xenograft model is anticipated to be a desirable quality of the invention.
(§1) Female athymic nude mice weighing no less than 20-21 grams were inoculated subcutaneously in the left inguinal region of the thigh with 5×10^6 tumor cells in a delivery volume of 0.2 mL. For regression studies, the tumors were allowed to grow to a pre-determined size prior to initiation of dosing.
(See FIG. 2). […] Percent Inhibition was calculated versus the mean tumor weight in the vehicle-treated control group.

[2] = biological target: T3, isolated kinase domain of the human c-kit receptor (Homo sapiens, UniProt P10721); experiment: c-Kit Fluorescence Polarization Kinase Assay; assay type: biochemical; settings: uncertainty ±10%; read-out: ckit IC50
T3 construct: isolated kinase domain of the human c-kit receptor; purchased ProQinase lot SP005
T3 sequence (P10721 589-937 limits assumed): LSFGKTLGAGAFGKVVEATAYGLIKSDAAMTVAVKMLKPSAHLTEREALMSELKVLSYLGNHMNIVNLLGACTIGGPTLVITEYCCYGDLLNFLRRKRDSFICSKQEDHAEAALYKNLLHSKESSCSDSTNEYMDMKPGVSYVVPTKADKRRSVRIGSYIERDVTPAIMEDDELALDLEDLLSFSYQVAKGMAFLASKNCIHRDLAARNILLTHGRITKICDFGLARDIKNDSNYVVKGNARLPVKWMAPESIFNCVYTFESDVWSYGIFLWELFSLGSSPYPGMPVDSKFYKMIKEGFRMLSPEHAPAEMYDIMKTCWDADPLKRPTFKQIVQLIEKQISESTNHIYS
Description: c-Kit Fluorescence Polarization Kinase Assay
The compounds of the present invention are also specific inhibitors of c-Kit. Selection of preferred compounds of Formula I for use as c-Kit inhibitors was performed in the following manner using an in vitro kinase assay to measure inhibition of the isolated kinase domain of the human c-kit receptor in a fluorescence polarization (FP) protocol. The c-kit assay utilized the fluorescein-labeled phosphopeptide and the anti-phosphotyrosine antibody included in the Panvera Phospho-Tyrosine Kinase Kit (Green) supplied by Invitrogen. When c-kit phosphorylated the poly Glu4Tyr, the fluorescein-labeled phosphopeptide was displaced from the anti-phosphotyrosine antibody by the phosphorylated poly Glu4Tyr, thus decreasing the FP value. The c-kit kinase reaction was incubated at room temperature for 45 minutes under the following conditions: 1 nM c-kit (ProQinase, lot SP005), 100 ug/mL poly Glu4Tyr, 50 uM ATP, 5 mM MgCl2, 1 mM DTT, 0.01% Tween-20, 1% DMSO or compound in […], pH 7.5. The kinase reaction was stopped with the addition of EDTA. The fluorescein-labeled phosphopeptide and the anti-phosphotyrosine antibody were added and incubated for 30 minutes at room temperature and fluorescence polarization was read. Data points were an average of triplicate samples. Inhibition and IC50 data analysis were done with GraphPad Prism using a non-linear regression fit with a multiparamater, sigmoidal dose-response (variable slope) equation.

[3] = Tolerability in the MV4-11 xenograft study (body weight, overt clinical signs); assay type: in vivo, nude mice; settings: 11-day treatment, doses up to 200 mg/kg/day
Description: as §1

SMILES	IC50 [1]	IC50 (TrkB)	level of FLT3 phosphorylation in MV4-11 tumors compared to vehicle-treated mice (FLT3)	final tumors in some mice (MV4-11 tumor xenografts; high dose)	IC50 [2]	adverse effects on body weight [3]	overt toxicity [3]	decrease of mean tumor volume compared to vehicle-treated group (MV4-11 tumor xenografts; 10 mg/kg b.i.d. oral)	reduction of final tumor weight compared to vehicle-treated group (MV4-11 tumor xenografts; 10 mg/kg)	decrease of mean tumor volume compared to vehicle-treated group (MV4-11 tumor xenografts; 30 mg/kg b.i.d. oral)	reduction of final tumor weight compared to vehicle-treated group (MV4-11 tumor xenografts; 30 mg/kg)	tumor regression: decrease versus starting mean tumor volume on Day 1 (MV4-11 tumor xenografts; 100 mg/kg b.i.d. oral)	decrease of mean tumor volume compared to vehicle-treated group (MV4-11 tumor xenografts; 100 mg/kg b.i.d. oral)	reduction of final tumor weight compared to vehicle-treated group (MV4-11 tumor xenografts; 100 mg/kg)
COc1cc2ncnc(C3CCN(C(=O)Nc4ccc(N5CCN(C)CC5)cc4)CC3)c2cc1OC [Compound 20, 4-(6,7-Dimethoxy-quinazolin-4-yl)-piperidine-1-carboxylic acid [4-(4-methyl-piperazin-1-yl-phenyl)]-amide]	> 3 µM	39.9 µM	–	–	–	–	–	–	–	–	–	–	–	–
COc1cc2ncnc(C3CCN(C(=O)Nc4ccc(C(C)O)cc4)CC3)c2cc1OC (stereo not shown) [Compound 55, 4-(6,7-Dimethoxy-quinazolin-4-yl)-piperidine-1-carboxylic acid [4-(1-hydroxy-ethyl)-phenyl]-amide]	1 µM	39.1 µM	–	–	–	–	–	–	–	–	–	–	–	–
CN1CCN(CCCOc2ccc3c(C4CCN(C(=O)Nc5ccc(N6CCOCC6)cc5)CC4)ncnc3c2)CC1 [Compound 73, 4-{7-[3-(4-Methyl-piperazin-1-yl)-propoxy]-quinazolin-4-yl}-piperidine-1-carboxylic acid (4-morpholin-4-yl-phenyl)-amide]	–	> 20 µM	biologically significant reduction	regressed to non-palpable, non-detectable tumors	0.04 µM	no significant adverse effects on body weight	No overt toxicity	–	–	–	–	–	–	–
O=C1CCCN1CCOc1ccc2c(C3CCN(C(=O)Nc4ccc(N5CCCC5)cc4)CC3)ncnc2c1 [Compound 74, 4-{7-[2-(2-Oxo-pyrrolidin-1-yl)-ethoxy]-quinazolin-4-yl}-piperidine-1-carboxylic acid (4-pyrrolidin-1-yl-phenyl)-amide]	–	3.3 µM	biologically significant reduction	–	0.013 µM	no significant adverse effects on body weight	No overt toxicity	22%	12%	54%	43%	79%	96%	91%
